The target in this assay is T1, Protein-tyrosine phosphatase 1B (PTP1B) (Homo sapiens, UniProt P18031).
T1 construct: gene PTPN1
T1 sequence (P18031 1-435): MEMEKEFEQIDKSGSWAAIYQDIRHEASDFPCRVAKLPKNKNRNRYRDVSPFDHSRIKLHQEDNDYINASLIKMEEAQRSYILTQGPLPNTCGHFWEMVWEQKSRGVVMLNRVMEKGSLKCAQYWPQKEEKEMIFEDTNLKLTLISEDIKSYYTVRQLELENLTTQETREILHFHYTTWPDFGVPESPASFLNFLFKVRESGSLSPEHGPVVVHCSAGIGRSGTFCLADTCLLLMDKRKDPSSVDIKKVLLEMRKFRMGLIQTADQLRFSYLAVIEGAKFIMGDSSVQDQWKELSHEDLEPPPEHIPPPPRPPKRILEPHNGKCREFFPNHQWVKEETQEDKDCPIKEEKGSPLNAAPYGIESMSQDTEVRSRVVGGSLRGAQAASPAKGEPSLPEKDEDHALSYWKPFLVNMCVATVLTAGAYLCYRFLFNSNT
In words: pNPP dephosphorylation assay with human recombinant PTP1B; Lineweaver-Burk and Dixon plots. Type of assay: biochemical.

The structures appear in SMILES notation.

Ki data for one molecule are collected here from article PMC7587383, “Pimarane Diterpenoids from the Seeds of Caesalpinia minax as PTP1B Inhibitors and Insulin Sensitizers” (Molecules, 2020).

Usually Ki stands for the dissociation constant of the complex between target and ligand, obtained from inhibition or displacement.

Take `C=C[C@@]1(C)CCC2=C(C1)C(=O)C[C@H]1C(C)(C)C[C@H](O)C[C@]21C` [compound 1, 2α-hydroxy-7-oxo-pimara-8(9),15-diene]: the Ki is 13.7 ± 2.72 µM.
